Data: US20180200257A1, “METHODS FOR THE TREATMENT OF INFLAMMATORY DISORDERS” (Galapagos NV, priority 2015, published 2018)

Tested on: subjects with moderately to severely active RA who have an inadequate response to methotrexate (MTX)
Assay: Study 2 (monotherapy) - Aspartate Aminotransferase (AST) levels
Assay type: in vivo, human
Text: Randomized, double-blind, placebo-controlled, multicenter, phase IIb dose finding study of Compound 1 (dosed as a [Compound 1:HCl:3H2O]) administered for 24 weeks as monotherapy to subjects with moderately to severely active rheumatoid arthritis who have an inadequate response to methotrexate alone
Double-blind, placebo-controlled, monotherapy study in subjects with moderately to severely active RA who have an inadequate response to methotrexate (MTX) (oral or parenteral).
280 subjects randomized to one of 3 doses of Compound 1 (dosed as a [Compound 1:HCl:3H2O]) or to placebo, given once daily (q.d.).
Twelve weeks of treatment with Compound 1 (dosed as a [Compound 1:HCl:3H2O]) at 50 mg, 100 mg, or 200 mg q.d.; or placebo. At Week 12, all subjects on placebo and the subjects on the 50 mg dose who have not achieved 20% improvement in swollen joint count (SJC66) and tender joint count (TJC68) will be assigned to 100 mg q.d. in a blinded fashion and will continue treatment until Week 24. Subjects in the other groups will maintain their randomized treatment until Week 24.
AST levels determination is available at Quest Diagnostics, Clinical Trials, Quest House, 125-135 Staines Road, Hounslow, Middlesex, TW3 3JB, United Kingdom under Catalogue n#84450. For Study 3, the data are obtained at BARC Europe, 3B,Industrie Park, Zwijnaarde, B-9052 Ghent, Belgium.
AST catalyzes the transamination of aspartate and 2-oxoglutarate, forming L-glutamate and oxalacetate. The oxalacetate is reduced to L-malate by malate dehydrogenase, whilst NADH is converted to NAD+, measured spectrophotometrically. Guidelines for the AST value have been issued by the association for Clinical Biochemistry and Laboratory Medicine, 130-132 Tooley Street LONDON SE1 2TU, united Kingdom, wherein the AST value should be below 34 U/l in Female and below 45 U/L in male. As disclosed in the respective study protocols for Study 1 or 2, at week 12, depending on the outcome of their treatment, the subjects may be continued in their initial treatment course, or reassigned to another treatment group in a randomized blinded fashion until week 24. Therefore, the number of subjects (N) for the period of either 12 weeks, or 24 weeks is provided to reflect this redistribution at week 12.
Subjects in the other groups maintained their randomized treatment until Week 24.

[1] = 12 weeks results, 50 mg q.d., week 1
[2] = 12 weeks results, 50 mg q.d., week 2
[3] = 12 weeks results, 50 mg q.d., week 4
[4] = 12 weeks results, 50 mg q.d., week 8
[5] = 12 weeks results, 50 mg q.d., week 12
[6] = 12 weeks results, 100 mg q.d., week 1
[7] = 12 weeks results, 100 mg q.d., week 2
[8] = 12 weeks results, 100 mg q.d., week 4
[9] = 12 weeks results, 100 mg q.d., week 8
[10] = 12 weeks results, 100 mg q.d., week 12
[11] = 12 weeks results, 200 mg q.d., week 1
[12] = 12 weeks results, 200 mg q.d., week 2
[13] = 12 weeks results, 200 mg q.d., week 4
[14] = 12 weeks results, 200 mg q.d., week 8
[15] = 12 weeks results, 200 mg q.d., week 12
[16] = 24 weeks results, 50 mg q.d. non responders switching to 100 mg q.d. at week 12, week 1
[17] = 24 weeks results, 50 mg q.d. non responders switching to 100 mg q.d. at week 12, week 2
[18] = 24 weeks results, 50 mg q.d. non responders switching to 100 mg q.d. at week 12, week 4
[19] = 24 weeks results, 50 mg q.d. non responders switching to 100 mg q.d. at week 12, week 8
[20] = 24 weeks results, 50 mg q.d. non responders switching to 100 mg q.d. at week 12, week 12
[21] = 24 weeks results, 50 mg q.d. non responders switching to 100 mg q.d. at week 12, week 16
[22] = 24 weeks results, 50 mg q.d. non responders switching to 100 mg q.d. at week 12, week 20
[23] = 24 weeks results, 50 mg q.d. non responders switching to 100 mg q.d. at week 12, week 24
[24] = 24 weeks results, 50 mg q.d. responders, week 1
[25] = 24 weeks results, 50 mg q.d. responders, week 2
[26] = 24 weeks results, 50 mg q.d. responders, week 4
[27] = 24 weeks results, 50 mg q.d. responders, week 8
[28] = 24 weeks results, 50 mg q.d. responders, week 12
[29] = 24 weeks results, 50 mg q.d. responders, week 16
[30] = 24 weeks results, 50 mg q.d. responders, week 20
[31] = 24 weeks results, 50 mg q.d. responders, week 24
[32] = 24 weeks results, 100 mg q.d., week 1
[33] = 24 weeks results, 100 mg q.d., week 2
[34] = 24 weeks results, 100 mg q.d., week 4
[35] = 24 weeks results, 100 mg q.d., week 8
[36] = 24 weeks results, 100 mg q.d., week 12
[37] = 24 weeks results, 100 mg q.d., week 16
[38] = 24 weeks results, 100 mg q.d., week 20
[39] = 24 weeks results, 100 mg q.d., week 24
[40] = 24 weeks results, 200 mg q.d., week 1
[41] = 24 weeks results, 200 mg q.d., week 2
[42] = 24 weeks results, 200 mg q.d., week 4
[43] = 24 weeks results, 200 mg q.d., week 8
[44] = 24 weeks results, 200 mg q.d., week 12
[45] = 24 weeks results, 200 mg q.d., week 16
[46] = 24 weeks results, 200 mg q.d., week 20
[47] = 24 weeks results, 200 mg q.d., week 24
[48] = 24 weeks results, placebo switching to 100 mg q.d. at week 12, week 16
[49] = 24 weeks results, placebo switching to 100 mg q.d. at week 12, week 20
[50] = 24 weeks results, placebo switching to 100 mg q.d. at week 12, week 24

## O=C(Nc1nc2cccc(-c3ccc(CN4CCS(=O)(=O)CC4)cc3)n2n1)C1CC1 [Compound 1, cyclopropanecarboxylic acid {5-[4-(1,1-dioxo-thiomorpholin-4-ylmethyl)-phenyl]-[1,2,4]triazolo[1,5-a]pyridin-2-yl}-amide]
[1]
  Study 2 - AST Mean CFB: −1.8 IU/L
  Study 2 - AST Mean percentage CFB: 0.54%
[2]
  Study 2 - AST Mean CFB: −2.0 IU/L
  Study 2 - AST Mean percentage CFB: 1.54%
[3]
  Study 2 - AST Mean CFB: −1.7 IU/L
  Study 2 - AST Mean percentage CFB: −0.21%
[4]
  Study 2 - AST Mean CFB: −2.5 IU/L
  Study 2 - AST Mean percentage CFB: −0.42%
[5]
  Study 2 - AST Mean CFB: −0.2 IU/L
  Study 2 - AST Mean percentage CFB: 2.69%
[6]
  Study 2 - AST Mean CFB: 0.4 IU/L
  Study 2 - AST Mean percentage CFB: 8.99%
[7]
  Study 2 - AST Mean CFB: 1.3 IU/L
  Study 2 - AST Mean percentage CFB: 9.02%
[8]
  Study 2 - AST Mean CFB: 1.3 IU/L
  Study 2 - AST Mean percentage CFB: 15.05%
[9]
  Study 2 - AST Mean CFB: 1.9 IU/L
  Study 2 - AST Mean percentage CFB: 18.05%
[10]
  Study 2 - AST Mean CFB: 1.9 IU/L
  Study 2 - AST Mean percentage CFB: 16.02%
[11]
  Study 2 - AST Mean CFB: 0.1 IU/L
  Study 2 - AST Mean percentage CFB: 7.59%
[12]
  Study 2 - AST Mean CFB: 0.9 IU/L
  Study 2 - AST Mean percentage CFB: 11.22%
[13]
  Study 2 - AST Mean CFB: 0.8 IU/L
  Study 2 - AST Mean percentage CFB: 13.13%
[14]
  Study 2 - AST Mean CFB: 1.4 IU/L
  Study 2 - AST Mean percentage CFB: 16.67%
[15]
  Study 2 - AST Mean CFB: 1.1 IU/L
  Study 2 - AST Mean percentage CFB: 15.21%
[16]
  Study 2 - AST Mean CFB: −0.4 IU/L
  Study 2 - AST Mean percentage CFB: −1.15%
[17]
  Study 2 - AST Mean CFB: 0.3 IU/L
  Study 2 - AST Mean percentage CFB: 2.57%
[18]
  Study 2 - AST Mean CFB: 0.3 IU/L
  Study 2 - AST Mean percentage CFB: 2.84%
[19]
  Study 2 - AST Mean CFB: 0.0 IU/L
  Study 2 - AST Mean percentage CFB: 1.89%
[20]
  Study 2 - AST Mean CFB: 0.8 IU/L
  Study 2 - AST Mean percentage CFB: 7.36%
[21]
  Study 2 - AST Mean CFB: 0.8 IU/L
  Study 2 - AST Mean percentage CFB: 5.82%
[22]
  Study 2 - AST Mean CFB: 1.8 IU/L
  Study 2 - AST Mean percentage CFB: 13.66%
[23]
  Study 2 - AST Mean CFB: 2.6 IU/L
  Study 2 - AST Mean percentage CFB: 17.42%
[24]
  Study 2 - AST Mean CFB: −2.1 IU/L
  Study 2 - AST Mean percentage CFB: 0.98%
[25]
  Study 2 - AST Mean CFB: −2.6 IU/L
  Study 2 - AST Mean percentage CFB: 1.26%
[26]
  Study 2 - AST Mean CFB: −2.3 IU/L
  Study 2 - AST Mean percentage CFB: −1.03%
[27]
  Study 2 - AST Mean CFB: −3.2 IU/L
  Study 2 - AST Mean percentage CFB: −1.06%
[28]
  Study 2 - AST Mean CFB: −0.5 IU/L
  Study 2 - AST Mean percentage CFB: 1.37%
[29]
  Study 2 - AST Mean CFB: 0.5 IU/L
  Study 2 - AST Mean percentage CFB: 8.81%
[30]
  Study 2 - AST Mean CFB: 0.5 IU/L
  Study 2 - AST Mean percentage CFB: 7.58%
[31]
  Study 2 - AST Mean CFB: −0.5 IU/L
  Study 2 - AST Mean percentage CFB: 5.14%
[32]
  Study 2 - AST Mean CFB: 0.4 IU/L
  Study 2 - AST Mean percentage CFB: 8.99%
[33]
  Study 2 - AST Mean CFB: 1.3 IU/L
  Study 2 - AST Mean percentage CFB: 9.02%
[34]
  Study 2 - AST Mean CFB: 1.3 IU/L
  Study 2 - AST Mean percentage CFB: 15.05%
[35]
  Study 2 - AST Mean CFB: 1.9 IU/L
  Study 2 - AST Mean percentage CFB: 18.05%
[36]
  Study 2 - AST Mean CFB: 1.9 IU/L
  Study 2 - AST Mean percentage CFB: 16.02%
[37]
  Study 2 - AST Mean CFB: 5.4 IU/L
  Study 2 - AST Mean percentage CFB: 23.15%
[38]
  Study 2 - AST Mean CFB: 2.4 IU/L
  Study 2 - AST Mean percentage CFB: 23.16%
[39]
  Study 2 - AST Mean CFB: 1.5 IU/L
  Study 2 - AST Mean percentage CFB: 15.75%
[40]
  Study 2 - AST Mean CFB: 0.1 IU/L
  Study 2 - AST Mean percentage CFB: 7.59%
[41]
  Study 2 - AST Mean CFB: 0.9 IU/L
  Study 2 - AST Mean percentage CFB: 11.22%
[42]
  Study 2 - AST Mean CFB: 0.8 IU/L
  Study 2 - AST Mean percentage CFB: 13.13%
[43]
  Study 2 - AST Mean CFB: 1.4 IU/L
  Study 2 - AST Mean percentage CFB: 16.67%
[44]
  Study 2 - AST Mean CFB: 1.1 IU/L
  Study 2 - AST Mean percentage CFB: 15.21%
[45]
  Study 2 - AST Mean CFB: 2.2 IU/L
  Study 2 - AST Mean percentage CFB: 21.14%
[46]
  Study 2 - AST Mean CFB: 1.7 IU/L
  Study 2 - AST Mean percentage CFB: 17.43%
[47]
  Study 2 - AST Mean CFB: 1.4 IU/L
  Study 2 - AST Mean percentage CFB: 17.74%
[48]
  Study 2 - AST Mean CFB: 0.9 IU/L
  Study 2 - AST Mean percentage CFB: 8.60%
[49]
  Study 2 - AST Mean CFB: 2.2 IU/L
  Study 2 - AST Mean percentage CFB: 16.10%
[50]
  Study 2 - AST Mean CFB: 2.1 IU/L
  Study 2 - AST Mean percentage CFB: 13.64%
